Measured values from US8057783B2, “Method of injecting liquid agents at acupuncture points to arrive internal organs and method of visualizing arrival of liquid agents” (Seoul National University Industry Foundation, priority 2007, dated 2011).

Test: Injection of alcian blue solution at the lowest electric resistance point near Jung-Wan, arrival at pancreas observed by stereoscopic microscope
Type: in vivo
Details: hairless mouse, subcutaneous tissue near Jung-Wan, 0.1 μl a minute for 2 to 3 hours
Protocol: For laboratory animals, the hairless mouse (males, about 6 weeks old) supplied from the JungAng Laboratory Animal Company were used. The laboratory animals were managed in a breeding cage with temperature of 23° C. and 60% relative humidity under 12 hour light/dark cycles and supplied with food and water for ad libitum access.
The hairless mouse living in the above environment was anaesthetized by administering 1.5 g/kg of urethane, and all of the surgical procedures were performed under anesthesia. The hairless mouse under anesthesia were placed on the operating table under the stereoscopic microscope (Olympus SZX12) connected with the computer and the CCD camera.
Jung-Wan was determined at the middle of the umbilicus and the xiphoid process-sternum junction (JungJeong, one of acupuncture points) along the linea alba of the hairless mouse according to “GolDo method”, which is a method of finding acupuncture points by using its unique measuring units. After Jung-Wan was determined, the point having the lowest electric resistance was found within a radius of 2 mm from Jung-Wan by using the electro acupuncture point detector (Hamtech Korea Co., YNS202-S) and determined as the point into which an alcian blue solution would be injected. […]

alcian blue [alcian blue solution]
distribution of the visualizing material in internal organs after injection: dispersed into the threadlike structures penetrating out through the surface of the pancreas
